This passage reports remaining activity results from publication PMC8286840, “Identifying SARS-CoV-2 antiviral compounds by screening for small molecule inhibitors of Nsp3 papain-like protease” (Biochemical Journal, 2021).

Assay [1] addresses T1, SARS-CoV-2 PLpro (nsp3 1564–1878) (Severe acute respiratory syndrome coronavirus 2, UniProt P0DTD1). Put plainly: biochemical. Details: FRET-quenched peptide (Pro3) cleavage by PLpro, 10 min pre-incubation, slope over 20 min, normalised to no-compound control. To be noted: low concentration screen, read-out: % of control remaining.
The target in assay [2] is T1, SARS-CoV-2 PLpro (nsp3 1564–1878). Put plainly: biochemical. The arrangement: FRET-quenched peptide (Pro3) cleavage by PLpro, 10 min pre-incubation, slope over 20 min, normalised to no-compound control. Particulars: high concentration screen, read-out: % of control remaining.

The structures appear in SMILES notation. Counter-ions that a name gives are not always drawn. Like-named read-outs stand apart in the source and are kept apart here.

With `COc1ccc2c(c1O)-c1c(OC)c(OC)cc3c1[C@H](C2)N(C)CC3` [(+)-Isocorydine hydrochloride], the remaining activity at 1.25 µM in assay [1] (Well no.=3244) was determined as 93.2%. The remaining activity at 3.75 µM in assay [2] (Well no.=3244) was determined as 95.5%.

With `C[C@]12N[C@H](Cc3ccccc31)c1ccccc12` [(+)-MK-801 hydrogen maleate], in assay [1] (Well no.=1133), the remaining activity at 1.25 µM was determined as 98.4%. Further, the remaining activity at 3.75 µM in assay [2] (Well no.=1133) was 92.1%.

Take `C[C@@H]1O[C@H](C[N+](C)(C)C)C[C@H]1O` [(+)-Muscarine chloride]: the remaining activity at 1.25 µM in assay [1] (Well no.=3254) stood at 97.9%. Further, the remaining activity at 3.75 µM in assay [2] (Well no.=3254) worked out at 99.2%.

On to `CC[C@@H]1C(=O)OC[C@@H]1Cc1cncn1C` [(+)-Pilocarpine hydrochloride], for which the remaining activity at 1.25 µM in assay [1] (Well no.=1102) was determined as 96.5%. For the same compound, the remaining activity at 3.75 µM in assay [2] (Well no.=1102) worked out at 96.8%.

Consider `N[C@@H](Cn1oc(=O)[nH]c1=O)C(=O)O` [(+)-Quisqualic acid], for which the remaining activity at 1.25 µM in assay [1] (Well no.=1507) worked out at 96.2%. Also, the remaining activity at 3.75 µM in assay [2] (Well no.=1507) is 97.1%.

Take `O=C1c2c(O)cc(O)cc2O[C@H](c2ccc(O)c(O)c2)[C@H]1O` [(+)-Taxifolin]: in assay [1] (Well no.=3825), the remaining activity at 1.25 µM was found to be 101%. Also, the remaining activity at 3.75 µM in assay [2] (Well no.=3825) is 101%.

For the compound `COc1cc2c(cc1OC)[C@H]1CC(=O)[C@H](CC(C)C)CN1CC2` [(+)-Tetrabenazine], the remaining activity at 1.25 µM in assay [1] (Well no.=8086) was found to be 107%. In addition, the remaining activity at 3.75 µM in assay [2] (Well no.=8086) was found to be 108%.

In the case of `COc1cc2c3cc1Oc1cc(ccc1O)C[C@@H]1c4c(cc(OC)c(O)c4Oc4ccc(cc4)C[C@@H]3N(C)CC2)CC[N+]1(C)C` [(+)-Tubocurarine chloride], the remaining activity at 1.25 µM in assay [1] (Well no.=3471) came to 103%. The remaining activity at 3.75 µM in assay [2] (Well no.=3471) was determined as 104%.

In the case of `CC(=O)C1=C(O)C=C2Oc3c(C(C)=O)c(O)c(C)c(O)c3[C@@]2(C)C1=O` [(+)-Usnic acid], in assay [1] (Well no.=3394), the remaining activity at 1.25 µM was determined as 98.2%. The remaining activity at 3.75 µM in assay [2] (Well no.=3394) was 102%.

Consider `C[C@H]1OC[C@@H](C[N+](C)(C)C)O1` [(+)-cis-Dioxolane iodide], for which the remaining activity at 1.25 µM in assay [1] (Well no.=579) is 103%. For the same compound, the remaining activity at 3.75 µM in assay [2] (Well no.=579) came out at 100%.

`Oc1ccc([C@H]2COc3cc(O)ccc3C2)cc1` [(-)-(S)-Equol]: the remaining activity at 1.25 µM in assay [1] (Well no.=7405) worked out at 110%. The remaining activity at 3.75 µM in assay [2] (Well no.=7405) came to 107%.

Regarding `c1cc2c(cc1[C@H]1OC[C@@H]3[C@H]1CO[C@H]3c1ccc3c(c1)OCO3)OCO2` [(-)-Asarinin], the remaining activity at 1.25 µM in assay [1] (Well no.=3160) stood at 98.8%. The remaining activity at 3.75 µM in assay [2] (Well no.=3160) is 101%.

Regarding `N[C@H](CC(=O)O)C(=O)O` [(-)-Aspartic acid], the remaining activity at 1.25 µM in assay [1] (Well no.=7063) worked out at 103%. Also, the remaining activity at 3.75 µM in assay [2] (Well no.=7063) is 102%.

Consider `C=C[C@H]1CN2CC[C@H]1C[C@H]2[C@H](O)c1ccnc2ccccc12` [(-)-Cinchonidine], for which the remaining activity at 1.25 µM in assay [1] (Well no.=3196) is 101%. Also, the remaining activity at 3.75 µM in assay [2] (Well no.=3196) was found to be 102%.

For the compound `CN1C(=O)CC[C@H]1c1cccnc1` [(-)-Cotinine], the remaining activity at 1.25 µM was 97.9% in assay [1] (Well no.=228) and 99.3% in assay [1] (Well no.=3103). Besides, the remaining activity at 3.75 µM in assay [2] (Well no.=228) stood at 99.4%; in assay [2] (Well no.=3103), 101%.

Turning to `O=c1cccc2n1C[C@H]1CNC[C@H]2C1` [(-)-Cytisine], the remaining activity at 1.25 µM in assay [1] (Well no.=3797) came out at 97.8%. The remaining activity at 3.75 µM in assay [2] (Well no.=3797) stood at 101%.

As to `CC[C@]12CCCN3CCc4c(n(c5ccccc45)C(=O)C1)[C@@H]32` [(-)-Eburnamonine], in assay [1] (Well no.=3380), the remaining activity at 1.25 µM was 96.6%. The remaining activity at 3.75 µM in assay [2] (Well no.=3380) was 95%.

In the case of `Oc1cc(O)c2c(c1)O[C@H](c1ccc(O)c(O)c1)[C@H](O)C2` [(-)-Epicatechin], the remaining activity at 1.25 µM in assay [1] (Well no.=3348) is 96.9%. In assay [2] (Well no.=3348), the remaining activity at 3.75 µM was 98.5%.

For the compound `CNC[C@H](O)c1ccc(O)c(O)c1` [(-)-Epinephrine bitartrate], the remaining activity at 1.25 µM in assay [1] (Well no.=509) came to 102%. In assay [2] (Well no.=509), the remaining activity at 3.75 µM is 99.3%.

Take `CN1CC[C@@]2(C)c3cc(O)ccc3N(C)[C@@H]12` [(-)-Eseroline fumarate]: in assay [1] (Well no.=751), the remaining activity at 1.25 µM stood at 96.8%. Moreover, the remaining activity at 3.75 µM in assay [2] (Well no.=751) was 93.5%.

As to `C[C@H](O)[C@@H](O)[C@@H](O)[C@H](O)C=O` [(-)-Fucose], the remaining activity at 1.25 µM in assay [1] (Well no.=6549) amounted to 98.1%. Moreover, the remaining activity at 3.75 µM in assay [2] (Well no.=6549) was found to be 91.4%.

As to `C[C@H]1CC[C@@H](C(C)(C)O)CC2=C1CC[C@@H]2C` [(-)-Guaiol], in assay [1] (Well no.=3076), the remaining activity at 1.25 µM was determined as 98.4%. In addition, in assay [2] (Well no.=3076), the remaining activity at 3.75 µM amounted to 99.3%.

Consider `CC(C)NC[C@H](O)c1ccc(O)c(O)c1` [(-)-Isoproterenol hydrochloride], for which the remaining activity at 1.25 µM in assay [1] (Well no.=917) was determined as 107%. In addition, the remaining activity at 3.75 µM in assay [2] (Well no.=917) amounted to 106%.

As to `COC(=O)[C@H]1[C@H]2C[C@H]3c4[nH]c5cc(OC)ccc5c4CCN3C[C@H]2C[C@@H](OC(=O)c2cc(OC)c(OC)c(OC)c2)[C@@H]1OC` [(-)-Isoreserpine], the remaining activity at 1.25 µM in assay [1] (Well no.=3246) was 102%. In assay [2] (Well no.=3246), the remaining activity at 3.75 µM came out at 100%.

For the compound `C[C@@]12N[C@@H](Cc3ccccc31)c1ccccc12` [(-)-MK-801 hydrogen maleate], the remaining activity at 1.25 µM in assay [1] (Well no.=799) was found to be 101%. The remaining activity at 3.75 µM in assay [2] (Well no.=799) worked out at 99.2%.

Turning to `COc1ccc2cc([C@@H](C)C(=O)O)ccc2c1` [(-)-Naproxen sodium], in assay [1] (Well no.=1110), the remaining activity at 1.25 µM came to 95.3%. Further, the remaining activity at 3.75 µM in assay [2] (Well no.=1110) is 97.6%.

For `CN1CCC[C@H]1c1cccnc1` [(-)-Nicotine], the remaining activity at 1.25 µM in assay [1] (Well no.=3328) turned out to be 96.5%. The remaining activity at 3.75 µM in assay [2] (Well no.=3328) came out at 99.2%.

Consider `CCCN1CCC[C@@H]2Cc3[nH]ncc3C[C@H]21` [(-)-Quinpirole hydrochloride], for which the remaining activity at 1.25 µM in assay [1] (Well no.=1269) worked out at 96.5%. The remaining activity at 3.75 µM in assay [2] (Well no.=1269) was 99.7%.

`C[N+]1(C)[C@@H]2C[C@@H](OC(=O)[C@H](CO)c3ccccc3)C[C@H]1[C@@H]1O[C@@H]12` [(-)-Scopolamine methyl bromide]: the remaining activity at 1.25 µM in assay [1] (Well no.=1510) was found to be 96.7%. The remaining activity at 3.75 µM in assay [2] (Well no.=1510) was 97.5%.

With `CCN1CCC[C@H]1CNC(=O)c1cc(S(N)(=O)=O)ccc1OC` [(-)-Sulpiride], in assay [1] (Well no.=1364), the remaining activity at 1.25 µM came to 101%. Further, the remaining activity at 3.75 µM in assay [2] (Well no.=1364) was 99.2%.

Turning to `CC1=C(O)C(=O)[C@@H]2O[C@@H]2C1=O` [(-)-Terreic acid - (1R,6S)-3-Hydroxy-4-methyl-7-oxabicyclo[4.1.0]hept-3-ene-2,5-dione], the remaining activity at 1.25 µM in assay [1] (Well no.=2398) worked out at 99.2%. In addition, the remaining activity at 3.75 µM in assay [2] (Well no.=2398) came to 104%.

Take `NC(=O)c1cccc(NC(=O)/C=C/c2c[nH]c3ccccc23)c1` [(E)-3-(3-(1H-indol-3-yl)acrylamido)benzamide]: the remaining activity at 1.25 µM in assay [1] (Well no.=5576) is 93.5%. Also, the remaining activity at 3.75 µM in assay [2] (Well no.=5576) amounted to 93.4%.
